According to publication PMC12770474 (Nature Communications, 2025):

What was measured:
OCs formed by BMMs = test: TRAP staining of RANKL-induced OCs formed by BMMs; format: cell-based, mice; conditions: TRAP staining day 6, n = 5
Dynamic light scattering = format: physicochemical; conditions: self-assembled nanoparticles, aqueous solution pH 7.4, 64 μM, Zetasizer
CTSK = target: T1, CTSK (Homo sapiens, UniProt P43235); test: Zeta potential of the enzymolysis reaction mixture with and without CTSK; format: physicochemical; conditions: 64 μM peptide
T1 sequence (P43235 115-329): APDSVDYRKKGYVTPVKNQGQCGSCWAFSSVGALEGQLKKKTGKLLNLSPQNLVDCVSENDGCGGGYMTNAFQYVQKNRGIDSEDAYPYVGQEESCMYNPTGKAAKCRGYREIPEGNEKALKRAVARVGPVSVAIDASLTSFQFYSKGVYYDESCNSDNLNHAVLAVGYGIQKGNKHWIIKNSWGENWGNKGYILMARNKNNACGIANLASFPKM

BMMs = test: CCK-8 cytotoxicity assay, BMMs; format: cell-based, mice; conditions: CCK-8, 24 h, different concentrations, n = 3
[1] = TEM morphology of peptide assemblies in PBS; conditions: 64 μM in PBS pH 7.4, 8 h incubation
[2] = Zeta potential of peptide assemblies; format: physicochemical; conditions: self-assembled peptide, 64 μM, Zetasizer, n = 3
OCs = test: Tunel staining of OCs apoptosis; format: cell-based, mice; conditions: BGD 64 μM or ALD 500 μM, 24 h, n = 3
OVX mice = conditions: mouse, in vivo

In the case of CCCN1CCN(c2ccc(C(=O)NC3(C(=O)NCC#N)CCCCC3)cc2)CC1 [Balicatib, reference compound], the “OCs formation, inhibitor alone” value (OCs formed by BMMs; 20 nM on day 5 of RANKL induction) is reported as “did not inhibit OCs formation”.

With Bip-FFWKYK-GHPAAPQ-DDDDDD [BAD] the “average size of nanoparticles (DLS)” value (Dynamic light scattering) was 36.6 nm, the “zeta potential of reaction mixture, presence of CTSK / after cleavage” value (CTSK; MES buffer pH 5.5, with CTSK 800 ng/ml) was −9.5 mV and the “zeta potential of reaction mixture, absence of CTSK / before cleavage” value (CTSK; MES buffer pH 5.5, without CTSK) was −14.3 mV. For the same compound, the “cytotoxicity toward BMMs” value (BMMs) was “consistent cytocompatibility”, the “morphology of assemblies (TEM)” value [1] was “dispersed, nearly spherical nanoparticles” and the Zeta potential [2] was −20.8 mV. For the same compound, the “number of TRAP-positive OCs vs RANKL control” value (OCs formed by BMMs; peptide (64 μM) added on day 5 of RANKL induction) was “no significant effect”.

With Bip-FFWKYK-GHPGGPQ-KKKKKK [BGK] the “cytotoxicity toward BMMs” value (BMMs) was “exhibited cytotoxicity at 32 μM” and the Zeta potential [2] was “+11.2 mV”.

For NCCCC(O)(P(=O)(O)O)P(=O)(O)O [ALD, Alendronate], the “cells undergoing apoptosis (Tunel staining)” value (OCs) was “a large number of OCs and pre-OCs underwent apoptosis” and the “micro-CT bone parameters (BMD, BV/TV, Tb.Th, Tb.N, Tb.Sp) vs OVX” value (OVX mice) was “significantly improved”.

For Bip-FFWKYK-GHPGGPQ-NNNNNN [BGN], the “cytotoxicity toward BMMs” value (BMMs) was “biocompatible” and the Zeta potential [2] was −26.4 mV.
